# Measurements taken from patent US4203909A, “Furan compounds” (Bristol-Myers Company, priority 1978, dated 1980).
# Assays:
# [1] = target: T1, histamine H2 -receptors (isolated guinea pig right atria) (Cavia porcellus, UniProt P47747); assay: Histamine H2-receptor antagonism, isolated guinea pig atria assay; assay type: cell-based, guinea pig (male Hartley strain); conditions: for Histamine ED50 With 95% Confidence Limits: histamine ED50 in presence of test compound 3 × 10^-5 M, 30 minute incubation; for Concentration-Response Curve Displacement Factor / Activity Ratio Relative to Cimetidine: test compound 3 × 10^-5 M; for Activity Ratio Relative to Cimetidine: cimetidine = 1.0
# T1 construct: The spontaneously beating right atrium was dissected free from other tissues; from tissue; host or cells: isolated spontaneously beating right atrium of male Hartley guinea pigs
# T1 sequence (P47747 whole entry): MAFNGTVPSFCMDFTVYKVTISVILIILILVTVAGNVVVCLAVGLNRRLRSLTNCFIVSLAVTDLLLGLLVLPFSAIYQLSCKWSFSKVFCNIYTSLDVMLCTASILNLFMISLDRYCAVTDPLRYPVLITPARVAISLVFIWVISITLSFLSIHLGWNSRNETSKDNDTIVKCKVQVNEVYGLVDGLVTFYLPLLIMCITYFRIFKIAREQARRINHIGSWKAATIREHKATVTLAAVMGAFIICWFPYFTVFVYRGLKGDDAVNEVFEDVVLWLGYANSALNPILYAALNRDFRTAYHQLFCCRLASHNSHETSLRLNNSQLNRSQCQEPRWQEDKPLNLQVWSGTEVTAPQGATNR
# Method: Subsequent investigations by Hughes and Coret, Proc. Soc. […] Black et al., Agents and Actions, 3, 133 (1973) and Brimblecombe et al., Fed. […] The present comparative studies were carried out using a modification of the procedure reported by Reinhardt et al., Agents and Actions, 4, 217 (1974).
# Male Hartley strain guinea pigs (350-450 gm.) were sacrificed by a blow on the head. The heart was excised and placed in a Petri dish of oxygenated (95% O2, 5% CO2) modified Krebs solution (g./liter: NaCl 6.6, KCl 0.35, MgSO4.7 H2 O 0.295, KH2 PO4 0.162, CaCl2 0.238, NaHCO3 2.1 and dextrose 2.09). The spontaneously beating right atrium was dissected free from other tissues and a silk thread (4-0) attached to each end. The atrium was suspended in a 20 ml. muscle chamber containing oxygenated modified Krebs solution maintained at 32° C. Atrial contractions were recorded isometrically by means of a Grass FT 0.03 force displacement transducer and recordings of contractile force and rate were made with a Beckman RP Dynograph.
# A resting tension of 1 g. was applied to the atrium and it was allowed to equilibrate for 1 hour.
# Concentration-response curve displacement factors were calculated as follows: [formula] […] [formula]
# gastric acid output [2] = assay: Gastric antisecretory activity in the two hour pylorus ligated (Shay) rat; assay type: in vivo, rat (male Long Evans); conditions: for Percent Inhibition Acid Output / ED50: 2 h; for ED50: two hour pylorus ligated rat; for Potency Ratio: relative to cimetidine = 1.00
# Excerpt: The pyloric ligation procedure in the rat was designed by Shay et al., Gastroenterology, 5, 53 (1945) for the study of perforating gastric ulcers; however, as the method became known, it was also employed as a means of studying rat gastric secretion, Shay et al., Gastroenterology, 26, 906 (1954), Brodie, D. A., Am. J. Dig. Dis., 11, 231 (1966). A modification of this procedure is presently used to evaluate compounds for gastric antisecretory activity.
# Male Long Evans rats, 280-300 gm., are used. The aimals are placed in individual cages and fasted for 24 hours with free access to water. Under ther anesthesia, the stomach is reached through a midline incision, and a cotton-thread ligature is placed around the pylorus. […] All compounds are solubilized with one equivalent of HCl and brought to the proper volume with water. The animals are returned to their cages from which the water bottles have been removed and two hours later are sacrificed with ether. The stomach is removed and the two hour gastric collection is drained into a graduated test tube for volume determination. Titratable acidity is measured by titrating a one ml. sample to pH 7.0 with 0.02 N NaOH, using an Autoburet and an electrometric pH meter (Radiometer). Titratable acid output is calculated in microequivalents by multiplying the volume in milliliters by the acid concentration in milliequivalents per liter. The percent inhibition of acid output is calculated as follows [formula]
# gastric acid output [3] = assay: Gastric antisecretory activity in the gastric fistula dog; assay type: in vivo, beagle dogs; conditions: for Percent Inhibition Acid Output: histamine infusion
# Method: Thomas type [Thomas, J. E., Proc. Soc. Exp. Biol. Med., 46, 260 ([…])] stainless steel cannulae are inserted into the stomachs of beagle dogs (10-12 kg.) just orad to the pyloric gland area near the greater curvature to provide a chronic gastric fistula. Animals are allowed to recover for at least two months before any testing is done. Dogs are fasted overnight (~18 hours) with water ad lib prior to each experiment. The dogs are placed in a sling and an eight inch inside needle catheter (C. R. Baird, Inc.) with a two inch 17 gauge needle is inserted into a leg vein for purposes of drug administration. Gastric secretions are collected every 15 minutes by gravity drainage from the opened cannula. […] A modification of the procedure described by Grossman and Konturek, Gastroenterology, 66, 517 (1974) was followed. […] Each 15 minute sample of gastric juice is measured to the nearest 0.5 ml. and titratable acidity against 0.02 N NaOH (endpoint pH 7.0) is measured with an Autoburet and pH meter (radiometer). The percent inhibition of acid output is calculated as described in the pylorus ligated rat procedure.
# gastric secretion = conditions: cited from earlier work
# peptic ulcer disease = conditions: clinical evaluation; cited from earlier work
# histamine H2 -receptors = conditions: isolated guinea pig right atria; cited from earlier work
# H2 receptors = conditions: cited from earlier work
# [4] = clinical; cited from earlier work
smiles,measurement,setting,value
"C#CCNC(=C[N+](=O)[O-])NCCSCc1ccc(CN(C)C)o1 [BL-5966, 1-Nitro-2-(2-propynylamino)-2-{2-[(5-dimethylaminomethyl-2-furyl)methylthio]ethylamino}ethylene]",Histamine ED50 With 95% Confidence Limits,[1],32.70 µg/mL
same,potency as histamine H2 receptor antagonist (in words),[1]; isolated guinea pig atria,more potent than either cimetidine or Compound XVI
same,activity relative to Compound XVI,"[1]; isolated guinea pig right atria, vs Compound XVI",about 4.80 times
same,Concentration-Response Curve Displacement Factor,[1],181.67
same,Percent Inhibition Acid Output,gastric acid output [2]; 0.625 μ Mole/kg ip,27%
same,Percent Inhibition Acid Output,gastric acid output [2]; 1.25 μ Mole/kg ip,36%
same,Percent Inhibition Acid Output,gastric acid output [2]; 2.5 μ Mole/kg ip,59%
same,Percent Inhibition Acid Output,gastric acid output [2]; 5 μ Mole/kg ip,83%
same,ED50,gastric acid output [2]; ip,1.8 µmol/kg
same,Potency Ratio,gastric acid output [2]; ip,5.81 times
same,potency relative to Compound XVI,"gastric acid output [2]; ip, vs Compound XVI",2.52 times
same,potency as inhibitor of gastric secretion (in words),gastric acid output [2]; rats,more potent than either cimetidine or Compound XVI
same,Percent Inhibition Acid Output,gastric acid output [3]; 0.0469 μ Mole/kg iv,32%
same,Percent Inhibition Acid Output,gastric acid output [3]; 0.0938 μ Mole/kg iv,47%
same,Percent Inhibition Acid Output,gastric acid output [3]; 0.1875 μ Mole/kg iv,46%
same,Percent Inhibition Acid Output,gastric acid output [3]; 0.375 μ Mole/kg iv,90%
same,ED50,"gastric acid output [3]; Canis lupus familiaris, iv, gastric fistula dog",0.12 µmol/kg
same,potency as inhibitor of gastric secretion (in words),gastric acid output [3]; dogs,more potent than either cimetidine or Compound XVI
same,Potency Ratio,"gastric acid output [3]; iv, relative to cimetidine = 1.0",11.5 times
"C#CCNC(=NCCSCc1ccc(CN(C)C)o1)NC#N [BL-5993, N-Cyano-N'-(2-propyn-1-yl)-N""-{2-[(5-dimethylaminomethyl-2-furyl)methylthio]ethyl}guanidine]",Histamine ED50 With 95% Confidence Limits,[1],4.28 µg/mL
same,Concentration-Response Curve Displacement Factor,[1],23.78
same,Activity Ratio Relative to Cimetidine,[1],0.94 times
same,Activity Ratio Relative to Cimetidine,[1]; listed as BL-5933,about 0.94 times
same,Percent Inhibition Acid Output,gastric acid output [2]; 10 μ Mole/kg ip,34%
same,Percent Inhibition Acid Output,gastric acid output [2]; 20 μ Mole/kg ip,71%
same,ED50,gastric acid output [2]; ip,12.5 µmol/kg
same,Potency Ratio,gastric acid output [2]; ip,0.83 times
CNC(=S)NCCCCc1cnc[nH]1 [Burimamide],inhibition of gastric secretion,gastric secretion; animals and man,inhibits gastric secretion in animals and man
same,clinical effectiveness,peptic ulcer disease,first clinically effective H2 -receptor antagonist
same,H2-receptor mediated effect in atria (in words),histamine H2 -receptors,competitive antagonist of these receptors
CN=C(NC#N)NCCSCc1nc[nH]c1C [Cimetidine],Histamine ED50 With 95% Confidence Limits,[1],4.80 µg/mL
same,Concentration-Response Curve Displacement Factor,[1],25.26
same,H2 antagonist potency/effectiveness (in words),H2 receptors,as effective an H2 antagonist as metiamide
same,toxicity (agranulocytosis),[4],without producing agranulocytosis
same,clinical effectiveness,peptic ulcer disease,effective therapeutic agent in the treatment of peptic ulcer disease
"CNC(=C[N+](=O)[O-])NCCSCc1ccc(CN(C)C)o1 [Compound XVI, reference compound]",Histamine ED50 With 95% Confidence Limits,[1],11.97 µg/mL
same,Concentration-Response Curve Displacement Factor,[1],38.61
same,Percent Inhibition Acid Output,gastric acid output [2]; 5 μ Mole/kg ip,42%
same,Percent Inhibition Acid Output,gastric acid output [2]; 10 μ Mole/kg ip,77%
same,Percent Inhibition Acid Output,gastric acid output [2]; 20 μ Mole/kg ip,89%
same,ED50,gastric acid output [2]; ip,4.52 µmol/kg
same,Potency Ratio,gastric acid output [2]; ip,2.31 times
NCCc1c[nH]cn1 [Histamine],H2-receptor mediated effect in atria (in words),histamine H2 -receptors,concentration-related increases in the contractile rate
CNC(=S)NCCSCc1nc[nH]c1C [Metiamide],oral activity,"gastric secretion; man, oral",orally active in man
same,H2 antagonist potency/effectiveness (in words),H2 receptors,more potent than burimamide
same,toxicity (agranulocytosis),[4],toxicity (agranulocytosis)
